Data from ChEMBL document CHEMBL5291721, “A preclinical secondary pharmacology resource illuminates target-adverse drug reaction associations of marketed drugs” (Nat Commun, 2023).

What was measured:
[1] = target: Gamma-aminobutyric acid receptor subunit alpha-1 (Rattus norvegicus, UniProt P62813); format: functional
[2] = target: Sodium-dependent dopamine transporter (Homo sapiens, UniProt Q01959)
[3] = target: T1, Muscarinic acetylcholine receptor M2 (Homo sapiens, UniProt P08172); format: functional, cell-based
T1 sequence (P08172 whole entry): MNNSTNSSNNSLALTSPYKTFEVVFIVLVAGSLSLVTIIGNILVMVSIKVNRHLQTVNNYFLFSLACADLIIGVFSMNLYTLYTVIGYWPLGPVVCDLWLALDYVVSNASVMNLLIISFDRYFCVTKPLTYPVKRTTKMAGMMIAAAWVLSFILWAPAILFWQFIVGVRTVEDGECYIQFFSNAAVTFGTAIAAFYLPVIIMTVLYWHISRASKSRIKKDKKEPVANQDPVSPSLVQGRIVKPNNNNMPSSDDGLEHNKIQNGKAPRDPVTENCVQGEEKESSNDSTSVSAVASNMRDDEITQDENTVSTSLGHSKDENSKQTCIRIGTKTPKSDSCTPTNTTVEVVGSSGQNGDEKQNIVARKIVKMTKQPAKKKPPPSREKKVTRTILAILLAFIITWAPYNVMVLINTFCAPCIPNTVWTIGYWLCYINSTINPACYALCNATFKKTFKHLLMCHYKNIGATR

[4] = target: Delta-type opioid receptor (Homo sapiens, UniProt P41143)
[5] = target: 5-hydroxytryptamine receptor 2B (Homo sapiens, UniProt P41595); format: functional, cell-based
Progesterone receptor = target: T2, Progesterone receptor (Homo sapiens, UniProt P06401); format: functional
T2 sequence (P06401 whole entry): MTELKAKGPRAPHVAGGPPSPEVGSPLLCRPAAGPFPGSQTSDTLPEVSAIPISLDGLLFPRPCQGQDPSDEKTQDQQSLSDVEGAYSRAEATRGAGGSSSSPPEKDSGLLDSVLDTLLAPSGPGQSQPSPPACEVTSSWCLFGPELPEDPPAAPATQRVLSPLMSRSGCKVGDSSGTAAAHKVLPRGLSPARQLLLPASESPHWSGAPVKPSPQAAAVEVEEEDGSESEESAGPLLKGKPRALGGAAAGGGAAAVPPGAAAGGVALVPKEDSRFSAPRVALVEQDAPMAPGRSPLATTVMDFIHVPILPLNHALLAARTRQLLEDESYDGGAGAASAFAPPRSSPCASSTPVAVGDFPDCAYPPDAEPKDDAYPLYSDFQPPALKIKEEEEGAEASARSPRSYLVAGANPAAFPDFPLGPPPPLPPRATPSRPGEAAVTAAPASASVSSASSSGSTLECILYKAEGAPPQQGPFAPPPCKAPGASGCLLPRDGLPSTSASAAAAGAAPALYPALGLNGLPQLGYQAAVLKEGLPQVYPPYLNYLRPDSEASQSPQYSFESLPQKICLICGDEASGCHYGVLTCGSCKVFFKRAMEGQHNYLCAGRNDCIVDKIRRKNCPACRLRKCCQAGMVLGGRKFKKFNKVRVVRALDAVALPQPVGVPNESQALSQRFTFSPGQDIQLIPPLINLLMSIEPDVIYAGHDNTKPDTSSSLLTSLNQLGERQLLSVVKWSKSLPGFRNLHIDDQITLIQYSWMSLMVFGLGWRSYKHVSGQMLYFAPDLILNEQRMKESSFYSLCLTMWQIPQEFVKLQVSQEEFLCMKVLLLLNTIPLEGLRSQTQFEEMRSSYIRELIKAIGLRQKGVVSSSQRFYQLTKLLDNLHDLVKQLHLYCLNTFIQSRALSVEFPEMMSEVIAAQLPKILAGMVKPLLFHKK

Cannabinoid receptor 1 = Cannabinoid receptor 1 (Homo sapiens, UniProt P21554); format: functional, cell-based
[6] = target: 5-hydroxytryptamine receptor 2A (Homo sapiens, UniProt P28223); format: functional, cell-based
[7] = target: Sodium-dependent serotonin transporter (Homo sapiens, UniProt P31645)
[8] = target: cGMP-inhibited 3',5'-cyclic phosphodiesterase 3A (Homo sapiens, UniProt Q14432); format: functional
Endothelin-1 receptor = target: T3, Endothelin-1 receptor (Homo sapiens, UniProt P25101)
T3 sequence (P25101 whole entry): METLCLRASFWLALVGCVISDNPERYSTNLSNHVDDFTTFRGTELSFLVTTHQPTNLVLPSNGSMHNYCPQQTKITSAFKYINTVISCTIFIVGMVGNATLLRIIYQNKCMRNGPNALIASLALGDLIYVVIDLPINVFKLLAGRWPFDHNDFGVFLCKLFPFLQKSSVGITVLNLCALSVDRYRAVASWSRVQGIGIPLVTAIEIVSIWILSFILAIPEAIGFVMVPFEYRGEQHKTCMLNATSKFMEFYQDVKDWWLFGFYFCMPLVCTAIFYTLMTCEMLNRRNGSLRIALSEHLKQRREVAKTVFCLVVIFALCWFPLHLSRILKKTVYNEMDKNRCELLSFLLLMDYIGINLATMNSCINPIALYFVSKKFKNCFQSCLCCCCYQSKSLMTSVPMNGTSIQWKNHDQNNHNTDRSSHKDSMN

[9] = target: T4, Prostaglandin G/H synthase 1 (Rattus norvegicus, UniProt Q63921); format: functional
T4 sequence (Q63921 whole entry): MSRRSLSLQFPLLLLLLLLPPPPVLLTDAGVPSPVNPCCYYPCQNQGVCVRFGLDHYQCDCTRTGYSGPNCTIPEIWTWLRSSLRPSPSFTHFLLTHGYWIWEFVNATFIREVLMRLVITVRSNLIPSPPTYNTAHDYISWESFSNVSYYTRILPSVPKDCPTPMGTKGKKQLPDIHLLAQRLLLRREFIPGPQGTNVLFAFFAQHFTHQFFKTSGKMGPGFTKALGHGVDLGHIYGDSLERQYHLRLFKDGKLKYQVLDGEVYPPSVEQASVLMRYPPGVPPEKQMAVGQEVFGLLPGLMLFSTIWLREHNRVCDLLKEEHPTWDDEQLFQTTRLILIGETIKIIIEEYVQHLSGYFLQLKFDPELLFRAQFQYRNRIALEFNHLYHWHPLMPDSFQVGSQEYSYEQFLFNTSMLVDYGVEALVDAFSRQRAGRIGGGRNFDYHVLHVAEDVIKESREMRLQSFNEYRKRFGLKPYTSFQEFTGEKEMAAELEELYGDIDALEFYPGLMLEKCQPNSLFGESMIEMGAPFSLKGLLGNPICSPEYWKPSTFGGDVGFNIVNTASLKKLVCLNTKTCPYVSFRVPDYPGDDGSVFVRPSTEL
Note: assay procedure not described here.

Chain of 5-hydroxytryptamine receptor 2B (P41595 whole entry): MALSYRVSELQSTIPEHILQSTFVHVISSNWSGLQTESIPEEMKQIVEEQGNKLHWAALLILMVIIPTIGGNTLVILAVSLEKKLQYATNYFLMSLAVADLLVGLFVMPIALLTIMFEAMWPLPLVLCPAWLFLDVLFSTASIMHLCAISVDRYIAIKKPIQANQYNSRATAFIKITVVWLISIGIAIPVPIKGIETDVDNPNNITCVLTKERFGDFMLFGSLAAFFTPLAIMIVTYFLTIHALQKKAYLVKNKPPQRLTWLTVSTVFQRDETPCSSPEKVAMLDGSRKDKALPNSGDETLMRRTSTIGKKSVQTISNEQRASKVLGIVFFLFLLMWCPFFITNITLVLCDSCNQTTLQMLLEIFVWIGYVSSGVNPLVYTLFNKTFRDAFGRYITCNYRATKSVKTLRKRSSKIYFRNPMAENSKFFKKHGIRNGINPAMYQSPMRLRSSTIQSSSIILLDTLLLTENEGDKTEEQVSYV
Chain of Sodium-dependent serotonin transporter (P31645 whole entry): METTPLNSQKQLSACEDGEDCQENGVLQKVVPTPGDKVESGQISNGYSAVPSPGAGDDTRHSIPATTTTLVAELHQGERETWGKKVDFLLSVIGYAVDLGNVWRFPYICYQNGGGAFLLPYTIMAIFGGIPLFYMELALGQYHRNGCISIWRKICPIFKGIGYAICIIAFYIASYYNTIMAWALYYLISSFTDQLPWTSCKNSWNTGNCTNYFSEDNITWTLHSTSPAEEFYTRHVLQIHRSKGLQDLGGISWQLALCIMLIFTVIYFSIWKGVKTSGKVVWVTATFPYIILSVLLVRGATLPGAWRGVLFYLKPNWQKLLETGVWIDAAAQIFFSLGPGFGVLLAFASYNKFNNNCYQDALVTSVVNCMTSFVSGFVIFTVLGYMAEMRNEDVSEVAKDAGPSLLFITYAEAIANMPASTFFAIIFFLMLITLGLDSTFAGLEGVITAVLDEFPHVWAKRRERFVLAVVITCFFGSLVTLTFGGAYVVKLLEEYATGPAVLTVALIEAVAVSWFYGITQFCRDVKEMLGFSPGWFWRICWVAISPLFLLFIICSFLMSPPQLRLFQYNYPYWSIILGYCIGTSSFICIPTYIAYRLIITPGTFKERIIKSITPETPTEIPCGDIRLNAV
Chain of Cannabinoid receptor 1 (P21554 whole entry): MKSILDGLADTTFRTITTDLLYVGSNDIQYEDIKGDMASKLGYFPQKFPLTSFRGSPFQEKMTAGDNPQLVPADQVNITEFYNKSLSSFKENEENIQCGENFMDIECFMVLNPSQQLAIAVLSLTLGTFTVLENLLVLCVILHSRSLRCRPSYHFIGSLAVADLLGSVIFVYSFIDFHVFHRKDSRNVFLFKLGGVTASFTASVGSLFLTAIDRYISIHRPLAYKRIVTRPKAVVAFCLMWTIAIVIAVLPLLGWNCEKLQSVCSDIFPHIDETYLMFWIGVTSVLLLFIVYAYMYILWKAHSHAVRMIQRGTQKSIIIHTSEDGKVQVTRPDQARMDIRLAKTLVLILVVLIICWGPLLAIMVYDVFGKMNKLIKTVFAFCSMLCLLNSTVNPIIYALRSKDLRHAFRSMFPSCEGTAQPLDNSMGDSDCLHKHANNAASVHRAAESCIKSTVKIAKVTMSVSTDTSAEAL
Chain of Delta-type opioid receptor (P41143 whole entry): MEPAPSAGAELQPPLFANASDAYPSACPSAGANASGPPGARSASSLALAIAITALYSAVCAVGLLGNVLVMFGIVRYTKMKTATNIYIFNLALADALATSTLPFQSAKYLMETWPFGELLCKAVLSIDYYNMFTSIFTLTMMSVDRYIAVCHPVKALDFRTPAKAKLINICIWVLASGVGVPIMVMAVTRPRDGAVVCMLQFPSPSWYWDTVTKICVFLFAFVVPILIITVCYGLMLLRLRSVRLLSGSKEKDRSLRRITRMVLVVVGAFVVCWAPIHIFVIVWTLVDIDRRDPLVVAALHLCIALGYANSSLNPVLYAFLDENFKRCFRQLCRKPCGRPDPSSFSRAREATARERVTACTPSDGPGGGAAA
Chain of cGMP-inhibited 3',5'-cyclic phosphodiesterase 3A (Q14432 whole entry): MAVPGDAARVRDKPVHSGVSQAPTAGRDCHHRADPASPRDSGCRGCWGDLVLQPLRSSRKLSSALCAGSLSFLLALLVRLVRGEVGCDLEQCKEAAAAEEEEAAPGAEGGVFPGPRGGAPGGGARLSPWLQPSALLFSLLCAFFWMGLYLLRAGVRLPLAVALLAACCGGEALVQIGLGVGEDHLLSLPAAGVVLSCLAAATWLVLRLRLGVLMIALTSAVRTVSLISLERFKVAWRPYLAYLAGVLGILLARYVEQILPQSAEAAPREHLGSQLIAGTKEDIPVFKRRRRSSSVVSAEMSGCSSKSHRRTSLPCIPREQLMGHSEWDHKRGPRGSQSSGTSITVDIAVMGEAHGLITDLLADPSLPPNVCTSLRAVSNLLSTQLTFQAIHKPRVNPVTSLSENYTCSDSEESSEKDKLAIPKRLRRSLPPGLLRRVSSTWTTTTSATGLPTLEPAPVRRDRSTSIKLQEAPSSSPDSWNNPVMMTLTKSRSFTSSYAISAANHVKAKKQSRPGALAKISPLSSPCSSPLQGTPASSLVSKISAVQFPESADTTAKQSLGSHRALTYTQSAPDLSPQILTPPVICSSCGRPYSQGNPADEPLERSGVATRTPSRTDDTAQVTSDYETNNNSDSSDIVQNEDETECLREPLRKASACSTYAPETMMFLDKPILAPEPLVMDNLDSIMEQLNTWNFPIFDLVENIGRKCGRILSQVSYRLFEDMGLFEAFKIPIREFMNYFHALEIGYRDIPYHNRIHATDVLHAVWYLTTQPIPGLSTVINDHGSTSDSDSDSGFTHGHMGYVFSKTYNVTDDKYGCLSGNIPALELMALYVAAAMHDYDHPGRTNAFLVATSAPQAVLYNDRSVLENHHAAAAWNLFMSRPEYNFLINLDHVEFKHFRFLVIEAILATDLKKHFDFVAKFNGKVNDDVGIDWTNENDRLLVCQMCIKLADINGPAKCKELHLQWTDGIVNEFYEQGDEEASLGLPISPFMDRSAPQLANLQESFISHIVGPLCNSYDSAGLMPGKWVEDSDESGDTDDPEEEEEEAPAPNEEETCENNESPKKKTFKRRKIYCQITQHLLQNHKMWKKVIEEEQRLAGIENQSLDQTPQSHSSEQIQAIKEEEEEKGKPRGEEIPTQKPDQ
Chain of 5-hydroxytryptamine receptor 2A (P28223 whole entry): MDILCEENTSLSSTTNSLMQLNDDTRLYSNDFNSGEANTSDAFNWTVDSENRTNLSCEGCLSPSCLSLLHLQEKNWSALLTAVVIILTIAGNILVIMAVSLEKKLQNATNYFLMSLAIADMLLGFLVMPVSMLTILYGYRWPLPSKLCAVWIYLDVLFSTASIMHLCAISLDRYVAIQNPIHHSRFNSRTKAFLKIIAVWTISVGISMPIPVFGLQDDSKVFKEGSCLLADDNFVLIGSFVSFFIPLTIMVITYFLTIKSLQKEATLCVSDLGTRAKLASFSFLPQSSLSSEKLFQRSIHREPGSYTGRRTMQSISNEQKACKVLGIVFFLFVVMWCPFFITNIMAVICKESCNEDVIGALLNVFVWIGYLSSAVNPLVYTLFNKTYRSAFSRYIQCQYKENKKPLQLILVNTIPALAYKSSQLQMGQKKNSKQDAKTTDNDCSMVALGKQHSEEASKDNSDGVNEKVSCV
Chain of Gamma-aminobutyric acid receptor subunit alpha-1 (P62813 whole entry): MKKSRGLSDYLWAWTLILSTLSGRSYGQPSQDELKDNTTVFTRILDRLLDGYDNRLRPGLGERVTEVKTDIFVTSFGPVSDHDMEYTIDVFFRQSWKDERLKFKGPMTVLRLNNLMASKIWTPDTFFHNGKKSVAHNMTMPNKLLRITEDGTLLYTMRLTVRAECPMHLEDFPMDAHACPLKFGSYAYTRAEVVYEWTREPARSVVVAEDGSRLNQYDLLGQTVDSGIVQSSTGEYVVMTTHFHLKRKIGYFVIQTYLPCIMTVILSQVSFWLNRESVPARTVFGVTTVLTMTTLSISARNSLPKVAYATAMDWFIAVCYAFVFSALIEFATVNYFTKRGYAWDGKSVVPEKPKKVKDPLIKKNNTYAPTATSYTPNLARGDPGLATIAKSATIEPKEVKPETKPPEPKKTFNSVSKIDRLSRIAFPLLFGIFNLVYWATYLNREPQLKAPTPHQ
Chain of Sodium-dependent dopamine transporter (Q01959 whole entry): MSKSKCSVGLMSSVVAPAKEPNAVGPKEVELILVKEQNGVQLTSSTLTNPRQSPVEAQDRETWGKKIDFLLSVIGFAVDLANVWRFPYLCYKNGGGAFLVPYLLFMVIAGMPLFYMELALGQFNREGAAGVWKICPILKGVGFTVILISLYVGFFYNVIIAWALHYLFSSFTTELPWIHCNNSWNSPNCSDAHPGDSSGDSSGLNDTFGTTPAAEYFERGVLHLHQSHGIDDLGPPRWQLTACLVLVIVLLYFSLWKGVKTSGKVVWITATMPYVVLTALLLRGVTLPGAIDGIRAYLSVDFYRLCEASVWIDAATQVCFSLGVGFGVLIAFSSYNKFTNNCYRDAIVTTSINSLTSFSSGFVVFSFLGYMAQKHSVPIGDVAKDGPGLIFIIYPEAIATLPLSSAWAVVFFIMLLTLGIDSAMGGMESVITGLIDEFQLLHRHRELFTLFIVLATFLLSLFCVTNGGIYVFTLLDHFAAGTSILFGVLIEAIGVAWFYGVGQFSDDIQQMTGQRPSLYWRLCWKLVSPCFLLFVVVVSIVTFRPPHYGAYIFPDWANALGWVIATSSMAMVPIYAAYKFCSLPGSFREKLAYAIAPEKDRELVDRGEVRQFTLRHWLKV

| Structure (SMILES) | AC50 [1] [µM] | AC50 [2] [µM] | AC50 [3] [µM] | AC50 [4] [µM] | AC50 [5] [µM] | AC50 (Progesterone receptor) [µM] | AC50 (Cannabinoid receptor 1) [µM] | AC50 [6] [µM] | AC50 [7] [µM] | AC50 [8] [µM] | AC50 (Endothelin-1 receptor) [µM] | AC50 [9] [µM] |
| --- | --- | --- | --- | --- | --- | --- | --- | --- | --- | --- | --- | --- |
| Clc1ccc(CCCOCCCN2CCCCC2)cc1 [PITOLISANT] | > 30 | 8.5 | > 30 | > 30 | > 30 | > 30 | > 30 | > 30 | 9.9 | > 30 | > 30 | > 30 |
| Cc1ccc(-n2nccn2)c(C(=O)N2CCN(c3nc4cc(Cl)ccc4o3)CC[C@H]2C)c1 [SUVOREXANT] | > 30 | > 10 | > 30 | > 30 | > 30 | > 30 | > 30 | > 30 | > 30 | > 30 | > 30 | > 30 |
| CCN(CC)C(=O)N[C@H]1C[C@@H]2c3cccc4[nH]cc(c34)C[C@H]2N(C)C1 [TERGURIDE] | > 30 | > 30 | > 30 | > 30 | > 30 | > 30 | > 30 | 0.48 | > 30 | > 30 | > 30 | > 30 |
| C/C(O)=C(\C#N)C(=O)Nc1ccc(C(F)(F)F)cc1 [TERIFLUNOMIDE] | > 30 | > 30 | > 30 | > 30 | > 30 | > 30 | > 30 | > 30 | > 30 | > 30 | > 30 | > 30 |
| CC(CC(c1ccccc1)c1ccccc1)NC(C)(C)C (stereo unspecified) [TERODILINE] | > 30 | 20 | > 30 | > 30 | > 30 | > 30 | > 30 | > 30 | > 30 | > 30 | > 30 | > 30 |
| COc1cc2c(N)nc(N3CCN(C(=O)OCC(C)(C)O)CC3)nc2c(OC)c1OC [TRIMAZOSIN] | > 30 | > 30 | > 30 | > 30 | > 30 | > 30 | > 30 | > 30 | > 30 | > 30 | > 30 | > 30 |
| C=CCN1CCCC1CNC(=O)c1cc(S(N)(=O)=O)cc(OC)c1OC (stereo unspecified) [VERALIPRIDE] | > 30 | > 30 | > 30 | > 30 | > 30 | > 30 | > 30 | > 30 | 25 | > 10 | > 30 | > 30 |
| O=C(NCCNCC(O)COc1ccc(O)cc1)N1CCOCC1 (stereo unspecified) [XAMOTEROL] | > 30 | > 30 | > 30 | > 30 | > 30 | > 30 | > 30 | > 30 | > 30 | > 30 | > 30 | > 30 |
